Among the test systems are HT-29; RXF 393; HCT-15; SW-620; NCI-H522; NCI-H23; SR; UACC-62; SF-295; SF-268; SK-MEL-28; HL-60; OVCAR-4; UACC-257; TK-10; SNB-19; RPMI-8226; HOP-62; SNB-75; SK-MEL-2.
Experiment in all cases: DTP human tumour cell line panel, 48 h

Usually GI50 stands for the concentration giving 50% growth inhibition.

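The compound was tested at five concentrations on cells cultured in 96-well plates, with a 48-hour exposure period. GI50: concentration for 50% inhibition of growth.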 The source made the active and inactive calls. Cut-off read from the data, not from the text of the source: active = GI50 up to about 1.1 µM and inactive = higher.

Take `COc1cc2c(OC)c(c1)CCCC1=CC(=O)C=C(CCC2)C1=O`: the GI50 in the assay with HT-29 was 44.9 µM (inactive); in the assay with RXF 393 it was 26.7 µM (inactive); with HCT-15 it was 33.6 µM; in the assay on SW-620, 32.1 µM (inactive); in the assay with NCI-H522 it was 21 µM (inactive); with NCI-H23, 50.2 µM (inactive). The GI50 is 3.54 µM (inactive) with SR; 31.8 µM (inactive) in the assay with UACC-62; 50.2 µM (inactive) in the assay with SF-295; 37.8 µM (inactive) in the assay with SF-268; 54.2 µM (inactive) in the assay on SK-MEL-28; 6.1 µM (inactive) in the assay with HL-60. Besides, the GI50 was 17.2 µM (inactive) with OVCAR-4; 35 µM (inactive) in the assay on UACC-257; > 100 µM (inactive) with TK-10; 29.4 µM (inactive) in the assay with SNB-19; 7.6 µM (inactive) with RPMI-8226; 78.7 µM (inactive) in the assay with HOP-62. Further, the GI50 in the assay with SNB-75 was > 60.3 µM (inactive).

In the case of `COc1cc(OCc2ccc3nc(OC)c(OC)nc3c2)cc(OC)c1OC`, the GI50 with HT-29 is > 10 µM (inactive); in the assay with RXF 393, > 10 µM (inactive); with HCT-15, > 10 µM; in the assay with SW-620, > 10 µM (inactive); with NCI-H522, > 10 µM (inactive); in the assay with NCI-H23, > 10 µM (inactive). For the same compound, the GI50 in the assay on SR, in the assay on UACC-62, in the assay on SF-295, with SF-268, with SK-MEL-28 and in the assay on HL-60 was > 10 µM (inactive) in each case. Further, the GI50 in the assay with OVCAR-4 was > 8 µM (inactive); in the assay with UACC-257, > 10 µM (inactive); with TK-10, > 10 µM (inactive); in the assay with SNB-19 it was > 10 µM (inactive); in the assay on RPMI-8226, > 10 µM (inactive); with HOP-62, > 10 µM (inactive). In addition, in the assay on SNB-75, the GI50 was > 10 µM (inactive).

For `O=C(Nc1ccccc1[N+](=O)[O-])/C(=N/Nc1cccc(Cl)c1)c1c(O)c2ccccc2oc1=O`, the GI50 is > 100 µM (inactive) in the assay with SK-MEL-2; > 100 µM (inactive) in the assay on HT-29; > 100 µM (inactive) in the assay with RXF 393; 58.1 µM with HCT-15; 40.9 µM (inactive) with SW-620; 30.5 µM (inactive) with NCI-H522. Moreover, the GI50 is 24.9 µM (inactive) with NCI-H23; 0.0357 µM (active) in the assay with SR; 42.2 µM (inactive) in the assay with UACC-62; > 100 µM (inactive) in the assay on SF-295; 28.9 µM (inactive) with SF-268; > 100 µM (inactive) in the assay on SK-MEL-28. Also, the GI50 in the assay on HL-60 was > 10 µM (inactive); in the assay with OVCAR-4, > 100 µM (inactive); with UACC-257 it was 41.2 µM (inactive); in the assay on TK-10, > 100 µM (inactive); in the assay with SNB-19, > 100 µM (inactive); in the assay with SNB-75, > 100 µM (inactive).

As to `CCCCN(CC)C(=O)C(=O)Cc1nc2ccc(C(=O)c3ccccc3)cc2nc1O`, the GI50 in the assay with HT-29 is 57.5 µM (inactive); in the assay on RXF 393 it was 25.5 µM (inactive); in the assay on HCT-15, 67.1 µM; in the assay on SW-620, > 100 µM (inactive); in the assay with NCI-H522, 20.3 µM (inactive); with NCI-H23, 57.9 µM (inactive). The GI50 is 21.6 µM (inactive) with SR; 66.5 µM (inactive) in the assay with UACC-62; 59 µM (inactive) in the assay on SF-295; > 100 µM (inactive) in the assay with SF-268; 73.3 µM (inactive) in the assay with SK-MEL-28; 20.8 µM (inactive) in the assay on HL-60. In addition, the GI50 is > 100 µM (inactive) with OVCAR-4; > 100 µM (inactive) with UACC-257; > 84.5 µM (inactive) in the assay with TK-10; 98.6 µM (inactive) with SNB-19; 27 µM (inactive) in the assay with RPMI-8226; > 100 µM (inactive) with HOP-62. In addition, in the assay on SNB-75, the GI50 is 25.8 µM (inactive).

Consider `COC(=O)OCC1OC(N2C(=O)NC(=O)C(I)C2N=[N+]=[N-])CC1OC(=O)OC` (configuration not stated), for which the GI50 is > 100 µM (inactive) in the assay on HT-29; > 100 µM (inactive) in the assay on RXF 393; > 100 µM in the assay on HCT-15; > 100 µM (inactive) with SW-620; > 100 µM (inactive) in the assay with NCI-H522; > 100 µM (inactive) in the assay on NCI-H23. The GI50 in the assay with SR, in the assay with UACC-62, in the assay on SF-295, with SF-268, in the assay with SK-MEL-28 and in the assay on HL-60 was > 100 µM (inactive) in each case. In addition, the GI50 in the assay with OVCAR-4, in the assay on UACC-257, in the assay on TK-10, in the assay on SNB-19, in the assay with RPMI-8226 and in the assay with HOP-62 was > 100 µM (inactive) throughout. For the same compound, the GI50 in the assay on SNB-75 was > 100 µM (inactive).

With `C[C@]12CCC(=O)C=C1CC[C@@H]1C2CC[C@]2(C)c3nn(-c4ccc(F)cc4)nc3CC12` (some centres not stated), the GI50 in the assay on HT-29 was > 100 µM (inactive); with RXF 393, 67.3 µM (inactive); in the assay on SW-620 it was > 100 µM (inactive); in the assay on NCI-H522, > 100 µM (inactive); in the assay with NCI-H23, > 100 µM (inactive); in the assay with SR it was > 100 µM (inactive). For the same compound, the GI50 in the assay on UACC-62 is > 100 µM (inactive); with SF-295 it was 69.8 µM (inactive); in the assay on SF-268, > 100 µM (inactive); with SK-MEL-28 it was > 100 µM (inactive); with HL-60, > 100 µM (inactive); in the assay with OVCAR-4 it was 49.3 µM (inactive). For the same compound, the GI50 in the assay on UACC-257 was > 100 µM (inactive); in the assay on TK-10, > 100 µM (inactive); with SNB-19, 43.6 µM (inactive); in the assay with HOP-62 it was 76.2 µM (inactive); with SNB-75, 38.1 µM (inactive).

As to `COC1CC(OC)C(O)C(CO)O1` (configuration not stated), the GI50 is > 100 µM (inactive) in the assay with SK-MEL-2; > 100 µM (inactive) in the assay with HT-29; > 100 µM (inactive) in the assay on RXF 393; > 100 µM with HCT-15; > 100 µM (inactive) with SW-620; > 100 µM (inactive) with NCI-H522. Also, the GI50 with NCI-H23, with SR, in the assay with UACC-62, in the assay on SF-295, with SK-MEL-28 and with HL-60 was > 100 µM (inactive) throughout. Further, the GI50 with OVCAR-4, in the assay with UACC-257, with TK-10, with HOP-62 and with SNB-75 was > 100 µM (inactive) in each case.

In the case of `CCOC(=O)NC(Nc1cccc(F)c1)(C(F)(F)F)C(F)(F)F`, the GI50 with SK-MEL-2 is > 100 µM (inactive); in the assay with HT-29, > 100 µM (inactive); in the assay with RXF 393 it was > 100 µM (inactive); in the assay on HCT-15, > 100 µM; with SW-620 it was > 100 µM (inactive); with NCI-H522 it was > 100 µM (inactive). For the same compound, the GI50 in the assay with NCI-H23 is > 100 µM (inactive); in the assay on SR, 7 µM (inactive); in the assay with UACC-62, 86.5 µM (inactive); in the assay on SF-295, > 100 µM (inactive); in the assay on SF-268 it was > 100 µM (inactive); with SK-MEL-28 it was > 100 µM (inactive). In addition, the GI50 with HL-60, in the assay with UACC-257, in the assay with TK-10, in the assay on SNB-19, in the assay on RPMI-8226 and in the assay on HOP-62 was > 100 µM (inactive) in each case. In addition, the GI50 in the assay on SNB-75 was > 100 µM (inactive).

For the compound `COC(=O)/C=C(\C(=O)OC)c1c2c3c(cc(OC)c(OC)c3c3ccccc13)CCN2C`, the GI50 with SK-MEL-2 was 35.4 µM (inactive); in the assay with HT-29, 38.5 µM (inactive); in the assay on RXF 393 it was 8.79 µM (inactive); with HCT-15 it was 22.3 µM; with SW-620, 35.5 µM (inactive); in the assay with NCI-H522, 23.1 µM (inactive). For the same compound, the GI50 in the assay with NCI-H23 was 42.2 µM (inactive); in the assay with SR it was 26.1 µM (inactive); with UACC-62, 24.2 µM (inactive); with SF-295, 78.9 µM (inactive); with SF-268 it was > 100 µM (inactive); with SK-MEL-28 it was 38.3 µM (inactive). Moreover, the GI50 is 17.9 µM (inactive) in the assay with HL-60; 30.5 µM (inactive) in the assay with UACC-257; 48.4 µM (inactive) in the assay on TK-10; 35.5 µM (inactive) in the assay on SNB-19; 26.8 µM (inactive) in the assay with RPMI-8226; 25.1 µM (inactive) in the assay on HOP-62. The GI50 in the assay with SNB-75 is 66.8 µM (inactive).

Regarding `CC1CC[P+](c2ccccc2)(c2ccccc2)CC1`, the GI50 was 77.3 µM (inactive) in the assay on SK-MEL-2; 79.3 µM (inactive) with HT-29; > 100 µM (inactive) in the assay on RXF 393; > 100 µM in the assay with HCT-15; > 100 µM (inactive) with SW-620; 40.5 µM (inactive) in the assay with NCI-H522. In addition, the GI50 with NCI-H23 was 72.6 µM (inactive); with SR, 55.5 µM (inactive); in the assay with UACC-62, 58.5 µM (inactive); in the assay on SF-295, > 100 µM (inactive); in the assay with SK-MEL-28, > 100 µM (inactive); with HL-60 it was 24.5 µM (inactive). The GI50 with UACC-257 was 33.6 µM (inactive); in the assay with TK-10, > 100 µM (inactive); in the assay with SNB-19, 92.3 µM (inactive); in the assay with RPMI-8226 it was 21.2 µM (inactive); with HOP-62, > 100 µM (inactive); with SNB-75, 62.4 µM (inactive).

With `COc1cc(CNc2nc3ccccc3nc2C(=O)O)cc(OC)c1OC`, the GI50 in the assay with HT-29 is > 100 µM (inactive); in the assay on RXF 393 it was 94 µM (inactive); with HCT-15, > 100 µM; in the assay with SW-620, > 100 µM (inactive); in the assay on NCI-H522 it was 71.9 µM (inactive); in the assay with NCI-H23 it was > 100 µM (inactive). In addition, the GI50 with SR is 99.1 µM (inactive); in the assay on UACC-62 it was 74 µM (inactive); in the assay with SF-295 it was > 100 µM (inactive); in the assay on SF-268, > 100 µM (inactive); with SK-MEL-28, > 100 µM (inactive); in the assay on HL-60, > 100 µM (inactive). Further, the GI50 with OVCAR-4 is > 100 µM (inactive); in the assay with UACC-257, > 100 µM (inactive); with TK-10, > 100 µM (inactive); in the assay on RPMI-8226, > 100 µM (inactive); with HOP-62, > 100 µM (inactive); with SNB-75, 76.7 µM (inactive).

The record behind these values is ChEMBL document CHEMBL1201862, “PubChem BioAssay data set” (2004).
